We go through one compound from paper PMC6675120, “Potent and selective inhibitors for M32 metallocarboxypeptidases identified from high-throughput screening of anti-kinetoplastid chemical boxes” (PLoS Neglected Tropical Diseases, 2019).

For test [1], the target named is T. cruzi sterol 14-α demethylase (CYP51). More on the design: method as in https://pubchem.ncbi.nlm.nih.gov/compound/91800813. The settings on record: ref https://pubchem.ncbi.nlm.nih.gov/compound/91800813; cited from earlier work.
The target of a further test is T1, Purified rabbit lung ACE (Oryctolagus cuniculus, UniProt P12822).
T1 construct: Purified rabbit lung ACE (EC 3.4.15.1) was purchased from Sigma-Aldrich; purchased Sigma-Aldrich; host or cells: rabbit lung tissue
T1 sequence (P12822 34-1310): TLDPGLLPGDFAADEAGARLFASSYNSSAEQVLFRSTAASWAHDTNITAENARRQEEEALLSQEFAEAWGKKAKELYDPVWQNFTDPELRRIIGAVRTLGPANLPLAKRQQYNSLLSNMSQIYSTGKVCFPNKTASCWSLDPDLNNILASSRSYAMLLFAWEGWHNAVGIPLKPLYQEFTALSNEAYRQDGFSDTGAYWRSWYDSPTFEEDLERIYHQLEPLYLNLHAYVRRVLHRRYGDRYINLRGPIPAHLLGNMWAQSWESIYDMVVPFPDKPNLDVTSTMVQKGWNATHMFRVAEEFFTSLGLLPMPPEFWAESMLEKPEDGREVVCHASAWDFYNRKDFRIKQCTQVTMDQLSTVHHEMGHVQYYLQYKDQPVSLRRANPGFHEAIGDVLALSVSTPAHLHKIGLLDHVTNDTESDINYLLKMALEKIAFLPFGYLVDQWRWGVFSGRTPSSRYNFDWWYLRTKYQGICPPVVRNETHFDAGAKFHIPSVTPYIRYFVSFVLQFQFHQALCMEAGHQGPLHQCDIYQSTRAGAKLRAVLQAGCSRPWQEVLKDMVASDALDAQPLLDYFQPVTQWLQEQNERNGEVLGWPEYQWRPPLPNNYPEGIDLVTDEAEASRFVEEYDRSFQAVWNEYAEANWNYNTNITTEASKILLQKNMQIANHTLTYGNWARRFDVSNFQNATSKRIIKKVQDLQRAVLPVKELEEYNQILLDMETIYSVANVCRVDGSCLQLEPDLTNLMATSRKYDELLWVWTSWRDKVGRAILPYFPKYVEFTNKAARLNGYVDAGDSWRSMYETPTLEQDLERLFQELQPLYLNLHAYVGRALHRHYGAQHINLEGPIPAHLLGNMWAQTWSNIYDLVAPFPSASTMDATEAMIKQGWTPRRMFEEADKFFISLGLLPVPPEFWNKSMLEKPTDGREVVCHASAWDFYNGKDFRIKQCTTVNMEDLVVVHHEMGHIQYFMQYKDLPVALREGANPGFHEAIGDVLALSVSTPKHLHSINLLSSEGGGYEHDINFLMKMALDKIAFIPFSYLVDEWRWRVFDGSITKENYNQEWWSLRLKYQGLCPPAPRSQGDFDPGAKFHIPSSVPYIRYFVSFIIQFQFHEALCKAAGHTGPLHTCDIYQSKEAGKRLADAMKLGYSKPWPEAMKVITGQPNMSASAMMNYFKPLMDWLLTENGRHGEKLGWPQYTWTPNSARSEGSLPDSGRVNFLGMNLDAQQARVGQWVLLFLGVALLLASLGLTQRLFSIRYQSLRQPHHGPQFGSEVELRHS
In words: ACE assay with Abz-FRK(Dnp)P-OH, dose-response. It counts as biochemical. Particulars: dose-response 7,5 pM to 62,5 μM.

The subject of another test is L. donovani. Also noted: method as in https://pubchem.ncbi.nlm.nih.gov/compound/91800813. Particulars: ref https://pubchem.ncbi.nlm.nih.gov/compound/91800813; cited from earlier work.

Description for Purified rabbit lung ACE: Because M32 MCPs show a strong topological similarity with ACE [22], we chose this enzyme to estimate the IC50 value for each molecule.
(A) Purified rabbit lung ACE was assayed at 37°C in 0,1 M Tris-HCl pH 7,0 buffer containing 50 mM NaCl, 10 mM ZnCl2 and 0,01% Triton X-100. […] NI, no inhibitor added. […] In all cases, solid lines represent the best fit of four-parameter Hill equation to experimental data (closed circles).
Purified rabbit lung ACE (EC 3.4.15.1) was purchased from Sigma-Aldrich. Enzyme activity was assayed fluorimetrically with Abz-FRK(Dnp)P-OH (ex/em = 320/420 nm) as substrate in buffer 0,1 M Tris-HCl, 50 mM NaCl, 10 mM ZnCl2, pH 7.0 containing 0,01% Triton X-100 as indicated in [23].

For orientation: IC50 means the midpoint of a concentration-inhibition curve. For `N#Cc1ccc(S(=O)(=O)N2CCN(Cc3cccc(-c4ccncc4)c3)CC2)cc1` [TCMDC-143620], in test [1], the IC50 is 79 nM. The ACE inhibition entry at Purified rabbit lung ACE was “inactive”. Besides, the “activity on L. donovani” value with L. donovani is “moderate but measurable activity”.
